# Experimental data as given in ChEMBL document CHEMBL5325403, “Benzenesulfonyl thiazoloimines as unique multitargeting antibacterial agents towards Enterococcus faecalis” (Eur J Med Chem, 2023).
# Calls of active or inactive are those of the source. No cut-off for these calls is given here.
# Assays:
# Cell membrane [1] = experiment: Induction of cytoplasmic membrane depolarization in Enterococcus faecalis at 4 times of MIC by DiSC35 dye-based fluorescence assay; details: time <= 80.0 min, TDE = time-dependent effect
# [2] = Cytotoxicity against human FHC cells assessed as cell viability rate at 20 ug/ml; format: toxicity, cell-based; details: at 20 µg/mL, read-out: Activity
# Enterococcus faecalis [3] = experiment: Induction of oxidative stress in Enterococcus faecalis assessed as decrease in GSH activity at 0.5 to 16 times of MIC by Ellman's method; format: functional, organism-based
# Enterococcus faecalis [4] = experiment: Antibacterial activity against Enterococcus faecalis assessed as reduction in bacterial growth measured after 16 passages by continuous dilution method; format: functional, organism-based
# Escherichia coli [5] = experiment: Antibacterial activity against Escherichia coli assessed as inhibition of bacterial growth by continuous dilution method; format: functional
# Enterococcus faecalis [6] = experiment: Antibiofilm activity against Enterococcus faecalis assessed as inhibition of biofilm formation at 0.5 to 6 times of MIC by crystal violet staining based analysis; format: functional, organism-based
# Staphylococcus aureus [7] = experiment: Antibacterial activity against Staphylococcus aureus assessed as inhibition of bacterial growth by continuous dilution method; format: functional
# Enterococcus faecalis [8] = experiment: Antibacterial activity against Enterococcus faecalis p1-2007226001 assessed as inhibition of bacterial growth by continuous dilution method; format: functional
# [9] = Cytotoxicity against human NOK-SI cells assessed as cell viability rate at 20 ug/ml; format: toxicity, cell-based; details: at 20 µg/mL, read-out: Activity
# Enterococcus faecalis [10] = experiment: Antibiofilm activity against Enterococcus faecalis assessed as inhibition of biofilm formation at 6 times of MIC by crystal violet staining based analysis; format: functional; design: scale not given: the % may be the effect or the level left
# Pseudomonas aeruginosa [11] = experiment: Antibacterial activity against Pseudomonas aeruginosa ATCC 27853 assessed as inhibition of bacterial growth by continuous dilution method; format: functional
# Calf thymus DNA [12] = experiment: Binding affinity to calf thymus DNA assessed as compound DNA complex formation by UV-Vis spectrophotometric analysis; format: nucleic-acid assay; details: Bos taurus
# Staphylococcus aureus [13] = experiment: Antibacterial activity against methicillin-resistant Staphylococcus aureus N315 assessed as inhibition of bacterial growth by continuous dilution method; format: functional
# Staphylococcus aureus [14] = experiment: Antibacterial activity against Staphylococcus aureus ATCC 25923 assessed as inhibition of bacterial growth by continuous dilution method; format: functional
# Calf thymus DNA [15] = experiment: Binding affinity to calf thymus DNA assessed as reduction in NR-DNA complex formation by measuring fluorescence intensity by competitive binding assay; format: nucleic-acid assay; details: Bos taurus
# Enterococcus faecalis [16] = experiment: Antibacterial activity against Enterococcus faecalis assessed as log reduction in bacterial growth measured after 6 hrs by continuous dilution method; format: functional
# Acinetobacter baumannii = experiment: Antibacterial activity against Acinetobacter baumannii assessed as inhibition of bacterial growth by continuous dilution method; format: functional
# Cell membrane [17] = experiment: Induction of inner membrane permeabilization in Enterococcus faecalis at 4 times of MIC measured at 25 mins by PI staining under fluorescence microscopic analysis
# Enterococcus faecalis [18] = experiment: Antibacterial activity against Enterococcus faecalis assessed as reduction in metabolic activity at 0.5 to 8 times of MIC by alamar blue staining based assay; format: functional, organism-based
# Enterococcus faecalis [19] = experiment: Induction of intracellular ROS generation in Enterococcus faecalis by DCFH-DA staining based fluorescence microscopic analysis; format: functional, organism-based
# Enterococcus faecalis [20] = experiment: Effect on cell morphology in Enterococcus faecalis assessed as cell shrank at 2 times of MIC incubated for 4 hrs by scanning electron microscopic analysis; format: functional, organism-based
# Pseudomonas aeruginosa [21] = experiment: Antibacterial activity against Pseudomonas aeruginosa assessed as inhibition of bacterial growth by continuous dilution method; format: functional
# Enterococcus faecalis [22] = experiment: Antibacterial activity against Enterococcus faecalis assessed as inhibition of bacterial growth by continuous dilution method; format: functional
# [23] = Hemolytic activity in human RBC assessed as hemolysis at 512 times of MIC measured after 1 hr; format: toxicity, cell-based, Erythrocyte; details: red blood cells (erythrocytes), read-out: Activity
# Cell membrane [24] = experiment: Disruption of cell membrane integrity in Enterococcus faecalis assessed as increase in protein leakage by Bradford assay
# Enterococcus faecalis [25] = experiment: Effect on cell morphology in Enterococcus faecalis assessed as cell deformation at 2 times of MIC incubated for 4 hrs by scanning electron microscopic analysis; format: functional, organism-based
# Escherichia coli [26] = experiment: Antibacterial activity against Escherichia coli ATCC 25922 assessed as inhibition of bacterial growth by continuous dilution method; format: functional
# Staphylococcus aureus [27] = experiment: Antibacterial activity against Staphylococcus aureus ATCC 29213 assessed as inhibition of bacterial growth by continuous dilution method; format: functional
# Enterococcus faecalis [28] = experiment: Antibacterial activity against Enterococcus faecalis p1-2007225053 assessed as inhibition of bacterial growth by continuous dilution method; format: functional
# Klebsiella pneumoniae = experiment: Antibacterial activity against Klebsiella pneumoniae assessed as inhibition of bacterial growth by continuous dilution method; format: functional
# Calf thymus DNA [29] = experiment: Binding affinity to calf thymus DNA assessed as compound DNA complex formation by measuring fluorescence intensity by acridine orange dye based competitive binding assay; format: nucleic-acid assay; details: Bos taurus
structure (smiles),measurement,setting,value
CC(=O)Nc1ccc(S(=O)(=O)C/C(=N/NC(=O)c2ccccn2)c2nccs2)cc1,Activity,Cell membrane [1],Tde
same,viability at 20 ug/ml,[2],45%
same,Activity,Enterococcus faecalis [3],Active
same,Activity,Enterococcus faecalis [4],Active
same,MIC,Escherichia coli [5],32 µg/mL
same,Activity,Enterococcus faecalis [6],Active
same,MIC,Staphylococcus aureus [7],4 µg/mL
same,MIC,Enterococcus faecalis [8],4 µg/mL
same,viability at 20 ug/ml,[9],65%
same,Activity,Enterococcus faecalis [10],35%
same,MIC,Pseudomonas aeruginosa [11],32 µg/mL
same,Activity,Calf thymus DNA [12],Active
same,MIC,Staphylococcus aureus [13],64 µg/mL
same,MIC,Staphylococcus aureus [14],4 µg/mL
same,Activity,Calf thymus DNA [15],Active
same,Activity,Enterococcus faecalis [16],Dose-Dependent Effect
same,log(activity),Enterococcus faecalis [16],3
same,MIC,Acinetobacter baumannii,32 µg/mL
same,Activity,Cell membrane [17],Active
same,Activity,Enterococcus faecalis [18],Active
same,Activity,Enterococcus faecalis [19],Dose-Dependent Effect
same,Activity,Enterococcus faecalis [20],Active
same,MIC,Pseudomonas aeruginosa [21],128 µg/mL
same,MIC,Enterococcus faecalis [22],1 µg/mL
same,"hemolysis at 1 h, 512 times of MIC",[23],< 3%
same,Activity,Cell membrane [24],Dose-Dependent Effect
same,Activity,Enterococcus faecalis [25],Active
same,MIC,Escherichia coli [26],64 µg/mL
same,MIC,Staphylococcus aureus [27],256 µg/mL
same,MIC,Enterococcus faecalis [28],2 µg/mL
same,MIC,Klebsiella pneumoniae,64 µg/mL
same,Activity,Calf thymus DNA [29],Active
